From ChEMBL document CHEMBL1201862, “PubChem BioAssay data set” (2004)
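Grown in 96-well plates, cells were treated for 48 hours with each compound at five concentrations. Insufficient inhibition: endpoint recorded as highest concentration tested. GI50 = concentration required for 50% inhibition of growth.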 Active and inactive are the calls of the source. Rule as the data show it: active = GI50 up to about 1.1 µM and inactive = higher.

Assays:
Assay in all cases: NCI anticancer screen, dose series, 48 h
A498 = test system: A498
BT-549 = test system: BT-549
EKVX = test system: EKVX
HOP-62 = test system: HOP-62
HOP-92 = test system: HOP-92
M14 = test system: M14
MDA-MB-231 = test system: MDA-MB-231
NCI-H23 = test system: NCI-H23
OVCAR-8 = test system: OVCAR-8
PC-3 = test system: PC-3
RXF 393 = test system: RXF 393
SK-MEL-2 = test system: SK-MEL-2
SK-MEL-5 = test system: SK-MEL-5
SK-OV-3 = test system: SK-OV-3
SW-620 = test system: SW-620
T47D = test system: T47D
UACC-257 = test system: UACC-257
UACC-62 = test system: UACC-62
Malme-3M = test system: Malme-3M
OVCAR-4 = test system: OVCAR-4

Row | Structure (SMILES) | GI50 (A498) | GI50 (BT-549) | GI50 (EKVX) | GI50 (HOP-62) | GI50 (HOP-92) | GI50 (M14) | GI50 (MDA-MB-231) | GI50 (NCI-H23) | GI50 (OVCAR-8) | GI50 (PC-3) | GI50 (RXF 393) | GI50 (SK-MEL-2) | GI50 (SK-MEL-5) | GI50 (SK-OV-3) | GI50 (SW-620) | GI50 (T47D) | GI50 (UACC-257) | GI50 (UACC-62) | GI50 (Malme-3M) | GI50 (OVCAR-4)
1 | CC1(C)OC2C(CO)OC(n3cnc(N)nc3=O)C2O1 (stereo not given) | > 100 µM (inactive) | > 100 µM (inactive) | > 100 µM (inactive) | > 100 µM (inactive) | > 100 µM (inactive) | > 100 µM (inactive) | > 100 µM (inactive) | > 100 µM (inactive) | > 100 µM (inactive) | > 100 µM (inactive) | > 100 µM (inactive) | > 100 µM (inactive) | > 100 µM (inactive) | > 100 µM (inactive) | > 100 µM (inactive) | > 100 µM (inactive) | > 100 µM (inactive) | > 100 µM (inactive) | – | –
2 | COc1ccc(-c2c(=O)[nH]n3c(=S)[nH]c(-c4ccccc4)nc23)cc1OC | 18.1 µM (inactive) | 17.4 µM (inactive) | 22.5 µM (inactive) | 30 µM (inactive) | 17.7 µM (inactive) | 19.9 µM (inactive) | 28.6 µM (inactive) | 21.3 µM (inactive) | 20.8 µM (inactive) | 31.3 µM (inactive) | 17.7 µM (inactive) | – | 16.4 µM (inactive) | 25.1 µM (inactive) | 30.1 µM (inactive) | 20.2 µM (inactive) | 24 µM (inactive) | 19.1 µM (inactive) | 19.2 µM (inactive) | 21 µM (inactive)
3 | COc1cccc(C2c3cc4c(cc3OC(Nc3ccccc3)C2C)OCO4)c1OC (stereo not given) | 11.5 µM (inactive) | 9.12 µM (inactive) | 19.8 µM (inactive) | 15 µM (inactive) | 5.43 µM (inactive) | 67.6 µM (inactive) | 13.7 µM (inactive) | 42 µM (inactive) | 16.3 µM (inactive) | 4.47 µM (inactive) | 3.66 µM (inactive) | 4.55 µM (inactive) | 6.5 µM (inactive) | 7.59 µM (inactive) | 7.85 µM (inactive) | 5.14 µM (inactive) | 35.6 µM (inactive) | 9.55 µM (inactive) | 6.31 µM (inactive) | –
4 | COc1cc(C2CC(C)(N3CCCC3)Oc3cc4c(cc32)OCO4)cc(OC)c1OC (stereo not given) | 0.578 µM (active) | 0.794 µM (active) | 0.456 µM (active) | 0.335 µM (active) | 62.1 µM (inactive) | 0.394 µM (active) | 0.145 µM (active) | – | 0.524 µM (active) | 0.0889 µM (active) | 0.0908 µM (active) | 0.408 µM (active) | 0.124 µM (active) | – | 0.167 µM (active) | 5.55 µM (inactive) | 0.13 µM (active) | – | 0.21 µM (active) | 19.5 µM (inactive)
5 | CCC(=O)O[C@H]1CC[C@H]2[C@@H]3CCC4=C/C(=N/OC(=O)c5cccc6c(=O)c7ccccc7[nH]c56)CC[C@]4(C)[C@H]3CC[C@]12C | 27.1 µM (inactive) | 25.3 µM (inactive) | 8.53 µM (inactive) | 32.1 µM (inactive) | 30.8 µM (inactive) | 24.7 µM (inactive) | 88.3 µM (inactive) | 51.3 µM (inactive) | 29.9 µM (inactive) | 26.9 µM (inactive) | 22.5 µM (inactive) | 31.6 µM (inactive) | 22.8 µM (inactive) | > 100 µM (inactive) | 32 µM (inactive) | 29.9 µM (inactive) | 38.1 µM (inactive) | 28.8 µM (inactive) | – | 38.2 µM (inactive)
6 | Cc1cc2c(-c3ccccc3)cc(=O)[nH]c2cc1N | > 100 µM (inactive) | > 100 µM (inactive) | > 100 µM (inactive) | > 100 µM (inactive) | > 100 µM (inactive) | > 100 µM (inactive) | > 100 µM (inactive) | > 100 µM (inactive) | > 100 µM (inactive) | > 100 µM (inactive) | > 100 µM (inactive) | > 100 µM (inactive) | > 100 µM (inactive) | – | > 100 µM (inactive) | > 100 µM (inactive) | > 100 µM (inactive) | > 100 µM (inactive) | – | > 100 µM (inactive)
7 | Cc1cn(C2CC(N=[N+]=[N-])C(COP(=O)(O)OCC3OC(n4cc(F)c(=O)[nH]c4=O)CC3O)O2)c(=O)[nH]c1=O (stereo not given) | 3.37 µM (inactive) | > 100 µM (inactive) | 6.46 µM (inactive) | 0.348 µM (active) | 1.11 µM (active) | 10.9 µM (inactive) | > 100 µM (inactive) | 4.05 µM (inactive) | 5.94 µM (inactive) | > 100 µM (inactive) | > 100 µM (inactive) | > 100 µM (inactive) | 12.2 µM (inactive) | > 100 µM (inactive) | 4.56 µM (inactive) | > 100 µM (inactive) | 96.6 µM (inactive) | 8.34 µM (inactive) | – | –
8 | CC1(C)O[C@@H]([C@H](O)CO)[C@H](O)[C@@H](C2SCCCS2)O1 | 59.8 µM (inactive) | > 100 µM (inactive) | > 100 µM (inactive) | > 100 µM (inactive) | 34.4 µM (inactive) | > 100 µM (inactive) | > 100 µM (inactive) | > 100 µM (inactive) | > 100 µM (inactive) | > 100 µM (inactive) | > 100 µM (inactive) | > 100 µM (inactive) | > 100 µM (inactive) | > 100 µM (inactive) | > 100 µM (inactive) | > 100 µM (inactive) | > 100 µM (inactive) | > 100 µM (inactive) | – | > 100 µM (inactive)
9 | CNC(=O)N1CCN(C(=O)NC)CCN(C(=O)NC)CC1 | > 100 µM (inactive) | > 100 µM (inactive) | > 100 µM (inactive) | > 100 µM (inactive) | > 100 µM (inactive) | > 100 µM (inactive) | > 100 µM (inactive) | > 100 µM (inactive) | > 100 µM (inactive) | > 100 µM (inactive) | > 100 µM (inactive) | > 100 µM (inactive) | > 100 µM (inactive) | > 100 µM (inactive) | > 100 µM (inactive) | > 100 µM (inactive) | > 100 µM (inactive) | > 100 µM (inactive) | > 100 µM (inactive) | –
10 | C/C(=N\NC(=S)N/N=C(\C)c1ccccn1)c1ccccn1 | 6.03 µM (inactive) | 5.22 µM (inactive) | 1.12 µM (inactive) | 1.05 µM (active) | 2.82 µM (inactive) | 1.27 µM (inactive) | 21.5 µM (inactive) | 4.6 µM (inactive) | 1.05 µM (active) | 1.27 µM (inactive) | – | – | 4.61 µM (inactive) | 1.31 µM (inactive) | 1.75 µM (inactive) | 6.31 µM (inactive) | 4.09 µM (inactive) | 1.71 µM (inactive) | 2.38 µM (inactive) | 1.04 µM (active)
11 | C1=C(CC2=C[P+](c3ccccc3)(c3ccccc3)C=C(c3ccccc3)O2)OC(c2ccccc2)=C[P+]1(c1ccccc1)c1ccccc1 | 0.716 µM (active) | 0.097 µM (active) | 0.44 µM (active) | 0.597 µM (active) | 0.166 µM (active) | 0.573 µM (active) | 0.313 µM (active) | 0.448 µM (active) | 0.239 µM (active) | 0.337 µM (active) | – | – | 0.293 µM (active) | 0.367 µM (active) | 0.367 µM (active) | 0.17 µM (active) | 0.352 µM (active) | – | 0.248 µM (active) | –
